Assay results taken from ChEMBL document CHEMBL4414609, “High-Affinity Alkynyl Bisubstrate Inhibitors of Nicotinamide N-Methyltransferase (NNMT)” (J Med Chem, 2019).

How the values were obtained:
[1] = biological target: T1, PNMT (phenylethanolamine N-methyltransferase) (Homo sapiens, UniProt P11086); test: Inhibition of human PNMT expressed in Escherichia coli at 10 uM assessed as reduction in SAH level using DL-normetanephrine as substrate in presence of SAM incubated for 45 mins by LC-MS/MS analysis relative to control; conditions: recombinant human PNMT expressed in Escherichia coli, probe DL-normetanephrine
T1 sequence (P11086 whole entry): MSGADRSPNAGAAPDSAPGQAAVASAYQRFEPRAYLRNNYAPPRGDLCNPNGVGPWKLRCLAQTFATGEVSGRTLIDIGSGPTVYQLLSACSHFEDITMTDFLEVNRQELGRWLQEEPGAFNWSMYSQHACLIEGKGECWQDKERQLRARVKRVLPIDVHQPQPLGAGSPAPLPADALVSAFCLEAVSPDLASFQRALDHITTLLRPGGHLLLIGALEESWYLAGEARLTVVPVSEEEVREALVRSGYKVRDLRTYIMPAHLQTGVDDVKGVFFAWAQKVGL

[2] = biological target: INMT (indolethylamine N-methyltransferase) (Homo sapiens, UniProt O95050); test: Inhibition of wild type human INMT expressed in Escherichia coli at 1 uM using tryptamine as substrate in presence of SAM incubated for 30 mins by MTase-Glo assay relative to control; conditions: probe tryptamine
Sequence of INMT (indolethylamine N-methyltransferase) (O95050 whole entry): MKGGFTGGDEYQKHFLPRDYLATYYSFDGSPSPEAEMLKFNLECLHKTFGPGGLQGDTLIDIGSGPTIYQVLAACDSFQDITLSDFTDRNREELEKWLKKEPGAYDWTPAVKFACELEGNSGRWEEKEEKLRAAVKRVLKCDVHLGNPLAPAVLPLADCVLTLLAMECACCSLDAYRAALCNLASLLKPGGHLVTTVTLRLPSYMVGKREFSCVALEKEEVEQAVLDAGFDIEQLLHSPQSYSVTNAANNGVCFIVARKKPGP

[3] = biological target: T2, TPMT (thiopurine S-methyltransferase) (Homo sapiens, UniProt P51580); test: Inhibition of human TPMT expressed in Escherichia coli assessed as reduction in SAH level at 1 uM using 6-mercaptopurine as substrate in presence of SAM incubated for 30 mins by LC-MS/MS analysis relative to control; conditions: recombinant human TPMT expressed in Escherichia coli, probe 6-mercaptopurine
T2 sequence (P51580 whole entry): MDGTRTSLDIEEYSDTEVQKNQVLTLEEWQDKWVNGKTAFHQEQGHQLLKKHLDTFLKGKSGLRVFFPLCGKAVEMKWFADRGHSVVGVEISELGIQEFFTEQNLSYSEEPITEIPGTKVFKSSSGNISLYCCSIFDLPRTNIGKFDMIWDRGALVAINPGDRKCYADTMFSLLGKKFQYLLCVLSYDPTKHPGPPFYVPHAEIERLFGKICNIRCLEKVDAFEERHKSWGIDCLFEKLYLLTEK

[4] = biological target: T3, Thiopurine S-methyltransferase (Homo sapiens, UniProt P51580); test: Inhibition of human TPMT expressed in Escherichia coli assessed as reduction in SAH level using 6-mercaptopurine as substrate in presence of SAM incubated for 30 mins by LC-MS/MS analysis
T3 sequence (P51580 whole entry): T2 sequence (P51580 whole entry)

[5] = biological target: T4, Histone-lysine N-methyltransferase EHMT1 (Homo sapiens, UniProt Q9H9B1); test: Inhibition of human EHMT1 expressed in Escherichia coli assessed as reduction in methylated histone H3 full length using histone H3 full length as substrate in presence of [3H] SAM incubated for 120 mins by scintillation counting
T4 sequence (Q9H9B1 whole entry): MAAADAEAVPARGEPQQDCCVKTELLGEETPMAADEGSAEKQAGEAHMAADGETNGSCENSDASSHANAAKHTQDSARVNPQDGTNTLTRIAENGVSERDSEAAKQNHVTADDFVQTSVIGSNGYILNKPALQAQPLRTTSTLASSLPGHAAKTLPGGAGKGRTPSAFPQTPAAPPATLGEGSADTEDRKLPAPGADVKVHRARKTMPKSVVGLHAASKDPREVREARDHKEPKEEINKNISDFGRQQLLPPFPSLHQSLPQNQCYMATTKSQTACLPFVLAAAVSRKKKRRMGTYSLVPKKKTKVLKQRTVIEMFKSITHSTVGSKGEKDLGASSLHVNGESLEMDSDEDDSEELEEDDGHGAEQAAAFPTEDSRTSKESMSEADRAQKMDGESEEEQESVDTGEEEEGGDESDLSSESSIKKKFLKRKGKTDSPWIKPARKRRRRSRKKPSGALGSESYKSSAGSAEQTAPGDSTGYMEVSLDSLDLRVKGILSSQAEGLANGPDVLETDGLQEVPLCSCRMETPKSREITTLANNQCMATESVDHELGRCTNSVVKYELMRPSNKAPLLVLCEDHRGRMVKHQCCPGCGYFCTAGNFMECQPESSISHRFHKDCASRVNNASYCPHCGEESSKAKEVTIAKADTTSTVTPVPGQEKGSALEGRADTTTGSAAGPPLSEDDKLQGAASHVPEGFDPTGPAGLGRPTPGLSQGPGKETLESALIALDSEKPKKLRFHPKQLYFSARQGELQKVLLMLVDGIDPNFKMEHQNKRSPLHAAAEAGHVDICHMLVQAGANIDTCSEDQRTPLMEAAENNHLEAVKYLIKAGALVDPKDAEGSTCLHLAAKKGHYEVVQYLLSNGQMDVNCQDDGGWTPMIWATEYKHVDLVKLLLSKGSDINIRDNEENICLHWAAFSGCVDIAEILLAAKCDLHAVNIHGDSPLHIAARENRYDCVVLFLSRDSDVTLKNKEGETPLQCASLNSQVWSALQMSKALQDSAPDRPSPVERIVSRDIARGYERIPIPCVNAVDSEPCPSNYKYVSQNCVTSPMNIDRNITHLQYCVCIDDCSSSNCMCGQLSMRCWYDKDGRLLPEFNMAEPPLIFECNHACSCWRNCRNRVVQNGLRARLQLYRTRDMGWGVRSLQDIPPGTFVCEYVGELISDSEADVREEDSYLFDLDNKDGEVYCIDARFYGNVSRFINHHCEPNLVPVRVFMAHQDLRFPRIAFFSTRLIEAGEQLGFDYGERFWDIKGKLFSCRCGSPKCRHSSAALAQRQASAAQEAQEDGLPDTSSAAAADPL

[6] = biological target: T5, COMT (catechol O-methyltransferase) (Homo sapiens, UniProt P21964); test: Inhibition of human COMT expressed in Escherichia coli at 1 uM assessed as reduction in SAH level using pyrocatechol as substrate in presence of SAM incubated for 15 mins by LC-MS/MS analysis relative to control; conditions: recombinant human COMT expressed in Escherichia coli, probe pyrocatechol
T5 sequence (P21964 whole entry): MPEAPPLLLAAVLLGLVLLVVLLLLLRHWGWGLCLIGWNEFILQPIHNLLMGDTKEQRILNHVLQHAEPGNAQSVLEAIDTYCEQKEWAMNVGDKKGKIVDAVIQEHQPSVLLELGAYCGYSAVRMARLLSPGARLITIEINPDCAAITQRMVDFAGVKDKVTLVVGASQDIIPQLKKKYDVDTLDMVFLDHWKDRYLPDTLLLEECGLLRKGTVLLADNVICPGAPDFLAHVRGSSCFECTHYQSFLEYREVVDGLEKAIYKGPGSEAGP

[7] = biological target: Histone-lysine N-methyltransferase, H3 lysine-79 specific (Homo sapiens, UniProt Q8TEK3); test: Inhibition of human DOT1L expressed in Escherichia coli assessed as reduction in methylated polynucleosome level using polynucleosome as substrate in presence of [3H] SAM incubated for 15 mins by scintillation counting
Sequence of Histone-lysine N-methyltransferase, H3 lysine-79 specific (Q8TEK3 whole entry): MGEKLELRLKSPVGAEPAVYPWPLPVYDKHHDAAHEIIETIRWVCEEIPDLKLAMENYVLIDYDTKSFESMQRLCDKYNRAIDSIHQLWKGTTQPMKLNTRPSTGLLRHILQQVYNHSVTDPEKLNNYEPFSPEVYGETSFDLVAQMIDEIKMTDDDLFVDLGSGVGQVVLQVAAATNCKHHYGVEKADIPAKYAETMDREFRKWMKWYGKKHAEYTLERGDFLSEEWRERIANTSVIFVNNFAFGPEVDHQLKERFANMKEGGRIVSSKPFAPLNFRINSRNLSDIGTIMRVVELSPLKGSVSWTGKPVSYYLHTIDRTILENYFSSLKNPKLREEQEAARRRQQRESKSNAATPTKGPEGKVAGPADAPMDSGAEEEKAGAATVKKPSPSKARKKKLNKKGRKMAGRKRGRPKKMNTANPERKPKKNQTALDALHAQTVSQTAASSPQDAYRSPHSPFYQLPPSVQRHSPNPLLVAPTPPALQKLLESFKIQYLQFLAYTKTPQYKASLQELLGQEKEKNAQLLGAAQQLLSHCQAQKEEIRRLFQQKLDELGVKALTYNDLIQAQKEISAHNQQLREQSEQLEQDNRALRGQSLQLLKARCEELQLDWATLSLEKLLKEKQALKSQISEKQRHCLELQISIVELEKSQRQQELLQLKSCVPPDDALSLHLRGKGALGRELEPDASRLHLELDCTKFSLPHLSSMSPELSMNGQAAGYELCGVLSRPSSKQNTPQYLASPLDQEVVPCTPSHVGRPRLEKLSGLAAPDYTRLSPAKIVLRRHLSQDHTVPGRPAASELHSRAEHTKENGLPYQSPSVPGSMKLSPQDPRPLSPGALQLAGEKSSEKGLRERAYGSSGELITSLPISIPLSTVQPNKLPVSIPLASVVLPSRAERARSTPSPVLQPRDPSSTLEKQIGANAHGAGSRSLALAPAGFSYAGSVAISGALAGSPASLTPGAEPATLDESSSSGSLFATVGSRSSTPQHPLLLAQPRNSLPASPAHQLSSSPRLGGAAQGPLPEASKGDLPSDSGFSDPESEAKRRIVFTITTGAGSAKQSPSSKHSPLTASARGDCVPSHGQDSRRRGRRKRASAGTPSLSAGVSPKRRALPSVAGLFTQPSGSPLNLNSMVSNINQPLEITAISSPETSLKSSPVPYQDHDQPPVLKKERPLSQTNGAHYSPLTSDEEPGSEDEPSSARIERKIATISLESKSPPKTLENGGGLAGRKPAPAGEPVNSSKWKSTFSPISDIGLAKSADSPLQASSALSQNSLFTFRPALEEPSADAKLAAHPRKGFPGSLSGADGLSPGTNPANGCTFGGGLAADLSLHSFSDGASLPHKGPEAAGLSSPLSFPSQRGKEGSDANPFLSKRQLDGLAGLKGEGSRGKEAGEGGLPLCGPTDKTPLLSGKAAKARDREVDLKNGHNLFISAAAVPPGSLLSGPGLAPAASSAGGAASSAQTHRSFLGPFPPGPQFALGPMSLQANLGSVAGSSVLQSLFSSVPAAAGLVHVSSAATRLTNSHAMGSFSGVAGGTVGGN

NC(=O)c1cccc(C#C[C@@H](CC[C@H](N)C(=O)O)C[C@H]2O[C@@H](n3cnc4c(N)ncnc43)[C@H](O)[C@@H]2O)c1
inhibition at 0.75 h, 10 µM [1]: 26%
inhibition at 0.5 h, 1 µM [2]: 14%
inhibition at 0.5 h, 1 µM [3]: 51%
IC50 [4]: 1 µM
IC50 [5]: > 10 µM
inhibition at 0.25 h, 1 µM [6]: 0%
IC50 [7]: > 10 µM
